Experimental data taken from patent US10995117B2, “Peptide for skin regeneration or wound treatment and use thereof” (KINE SCIENCES CO., LTD., priority 2016, dated 2021).

How the values were obtained:
[1] = test system: HaCaT cells; assay: Scratch assay, in vitro wound healing model; assay type: cell-based, human; conditions: for wound size (quantified) / migration of HaCaT cells: peptide 1 or 10 ng/ml; for migration of HaCaT cells: Mitomycin C pretreated
Procedure: In Example 5, the wound treatment effect according to the treatment of the peptides (peptides 1 and 2) prepared in Example 1 was confirmed through a scratch assay. A human epithelial cell line, HaCaT cells was cultured for 2 hours by adding Mitomycin C (10 ug/ml) in a serum-free medium to […]. After the cells were treated with the peptide (1 or 10 ng/ml) and TGF-β (1 ng/ml) as a positive control group in a medium added with 10% FBS, the migration ability of cells was observed over time and the reduction in wound size was quantified.

[2] = test system: Balb/c nude mouse; assay: Acute wound animal model, change in wound size; assay type: in vivo; conditions: 10 mm punch wound, 500 ng/one time, 5 times at 24-hour intervals, 14 days
Procedure: (§1) After an 8-week-old Balb/c nude mouse was anesthetized with Avertin (2.5%), the skin of the animal's back was cut by using a circular punch having a 10 mm diameter to induce an acute wound. The peptide was treated (500 ng/one time) at the site of excision total 5 times at 24-hour intervals at the site of excision and reduction of the wound area over time was measured for 14 days and an EGF was used as a positive control group (10 ug/one time). In this case, the peptide was treated with 20% pluronic F-127 (PBS) in a mixture state and the wound sizes over time were measured and digitized using a digital camera and an ImageJ program and compared with each other.

[3] = test system: Balb/c nude mouse; assay: Acute wound animal model, histological change (H&E staining); assay type: in vivo; conditions: skin tissue on day 5 after acute wound
Procedure: as §1
An acute wound was induced in the same manner as in Example 6-1, and the skin tissue was cut on 5 day after the acute wound was induced to prepare tissue fragments. Thereafter, histological changes according to peptide treatment were observed by H&E staining and observing the H&E staining by a microscope. Meanwhile, an EGF was used as a positive control group.

[4] = target: T1, tyrosinase (Mus musculus, UniProt P11344); assay: Tyrosinase activity of melanoma cell line (L-DOPA); assay type: cell-based; conditions: 24 hours
T1 construct: endogenous in cells; host or cells: B16F10 melanoma cells stimulated with alpha-MSH; Triton X-100 lysate supernatant
T1 sequence (P11344 19-533): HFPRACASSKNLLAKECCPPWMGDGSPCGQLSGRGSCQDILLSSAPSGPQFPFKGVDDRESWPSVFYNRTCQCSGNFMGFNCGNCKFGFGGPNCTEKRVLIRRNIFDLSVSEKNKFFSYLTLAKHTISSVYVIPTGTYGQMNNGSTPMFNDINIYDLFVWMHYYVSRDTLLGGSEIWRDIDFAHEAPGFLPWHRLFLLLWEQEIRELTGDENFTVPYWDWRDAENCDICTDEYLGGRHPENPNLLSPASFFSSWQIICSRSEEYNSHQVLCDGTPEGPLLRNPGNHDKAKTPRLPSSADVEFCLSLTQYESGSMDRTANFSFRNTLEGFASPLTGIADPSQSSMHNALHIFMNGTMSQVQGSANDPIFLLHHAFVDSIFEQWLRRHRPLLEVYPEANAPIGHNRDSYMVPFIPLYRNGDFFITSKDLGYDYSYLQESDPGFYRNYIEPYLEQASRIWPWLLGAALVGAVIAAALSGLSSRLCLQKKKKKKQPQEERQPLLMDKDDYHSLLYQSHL
Procedure: Tyrosinase as a rate-regulating enzyme that catalyzes the reaction in the melanin biosynthesis process was known to play a crucial role in regulating the amount of melanin in the cells. Thus, in Example 4, the tyrosinase activity of the melanoma cell line according to the treatment of the peptide (peptide 1) prepared in Example 1 was evaluated by an experimental method disclosed in the existing document (J. Dermatol. Sci. Vol. 57 (2010) 170-177). The melanoma cell line, B16F10 cells, was divided into a 12 well-plate at a concentration of 1×10^5 cells/well and cultured for 24 hours, and then treated with α-MSH ([…]) and the peptide of the present invention (1, 10, 100 ng/ml), cultured for 24 hours again, and then was washed with PBS and suspended in a 50 mM phosphate buffer (pH 6.8) containing 1% Triton X-100 after washing each well with PBS. After vortexing, the cells was frozen at […] for 30 minutes, dissolved at room temperature, and centrifuged at 1000 g for 10 minutes, and then 40 μl of a supernatant and 100 μl of 10 mM L-DOPA were added to a 96 well-plate and reacted at 37° C. Thereafter, the absorbance was measured at 405 nm with an ELISA reader to confirm the tyrosinase activity of the melanoma cell line. Meanwhile, a separate untreated group was used as a control group and a α-MSH-treated group and a Kojic acid-treated group were used as a positive control group.

[5] = test system: B16F10 cells; assay: Melanin production of melanoma cell line; assay type: cell-based; conditions: 24 hours
Procedure: The color of the skin is determined by an amount of melanin pigment produced by melanoma cells, and many studies have been conducted to improve abnormal pigmentation of the skin. Particularly, excessive pigmentation caused by chronic gashes is considered as a major medical problem, but no definitive treatment method has yet been developed. Thus, in Example 2, the production ability of melanin of a melanoma cell line according to the treatment of the peptide (peptide 1) prepared in Example 1 was evaluated by an experimental method disclosed in the existing document (Life Sci. 2013 Aug. 14; 93(5-6):226-32). The melanoma cell line, B16F10 cells, was cultured in a DMEM medium added with 10% fetal bovine […], and the cultured cells were divided into a 12 well-plate at a concentration of 1×10^5 cells/well. After the culture for 24 hours, α-MSH (10 uM) promoting melanin synthesis and the peptide (1, 10, and 100 ng/ml) of the present invention were treated and cultured again for 24 hours, added with 200 μl of a 1N NaOH solution after washing each well with PBS, and then dissolved at 100° C. for 30 minutes. Thereafter, the absorbance was measured at 405 nm with an ELISA reader to confirm the amount of melanin produced from the melanoma cell line. Meanwhile, an untreated group was used as a control group and a α-MSH-treated group was used as a positive control group.

[6] = test system: human dermal fibroblasts; assay: Procollagen secretion of human dermal fibroblasts (PIP EIA Kit); assay type: cell-based; conditions: peptide 100, 10, 1 ng/ml, versus control group and TGF-treated group
Procedure: (§2) Collagen is a main ingredient of skin connective tissues, and increased collagen expression is essential in wound healing such as a gash or skin regeneration. As a result, in Example 2, the production ability of collagen of human dermal fibroblasts (HDF) according to the treatment of the peptide (peptide 1) prepared in Example 1 was evaluated by an experimental method disclosed in the existing document (J. Biol. Chem. 1993 268(14): 9941-9944). First, the human dermal fibroblasts were cultured in a DMEM medium added with 10% fetal bovine […] (FBS), and the cultured cells were divided into a 6-well plate at a concentration of 2×10^5 cell/well and cultured for 24 hours, and then the medium was replaced with 2% FBS. After 24 hours from this, the cells were treated with the peptide (100, 10, 1 ng/ml) of the present invention, and thereafter, an amount of procollagen secreted to the culture medium was measured by using a Procollagen Type I C-peptide (PIP) EIA Kit, RNA was extracted with a Trizol reagent, and then the expression of Col1A1 (collagen type I, alpha 1) mRNA of the human dermal fibroblasts was confirmed through real-time PCR. Meanwhile, a separately untreated group (Control) was used as a control group and a TGF-treated group (TGF-) was used as a positive control group.

[7] = test system: Col1A1 (collagen type I, alpha 1) mRNA; assay: Col1A1 mRNA expression of human dermal fibroblasts (real-time PCR); assay type: cell-based; conditions: at a concentration of 10 ng/ml or more
Procedure: as §2

| Substance | wound reduction effect at low concentration ([1]; HaCaT cells, 1 ng/ml) | wound size effect compared with peptide 1 ([1]; HaCaT cells, 1 or 10 ng/ml) | wound size (quantified) ([1]; HaCaT cells) | migration of HaCaT cells [1] | wound treatment effect compared with peptide 1 [2] | epithelialization [3] | thicknesses of epidermis and dermis layers [3] | tyrosinase activity of the melanoma cell line ([4]; B16F10 cells) | amount of melanin produced ([5]; α-MSH (10 uM) alone) | tyrosinase activity of the melanoma cell line ([4]; B16F10 cells, 10, 100 ng/ml, no significant difference from Kojic acid-treated group) | production amount of melanin ([5]; α-MSH (10 uM) plus peptide 1, 10, 100 ng/ml, no significant difference from non-α-MSH-treated group) | secretion amount of procollagen [6] | expression of Col1A1 [7] |
| --- | --- | --- | --- | --- | --- | --- | --- | --- | --- | --- | --- | --- | --- |
| REGRTREGRT (peptide 2) | definite wound reduction effect | more remarkable | significant reduction | increased in a peptide concentration-dependent manner | excellent effect as compared to the case treated with the peptide 1 | actively progressed | larger than those of a PBS negative control group |  |  |  |  |  |  |
| α-MSH [reference compound] |  |  |  |  |  |  |  | greatly increased | a large amount of melanin was produced |  |  |  |  |
| REGRT (peptide 1) |  |  | significant reduction | increased in a peptide concentration-dependent manner |  | actively progressed | larger than those of a PBS negative control group |  |  | greatly reduced | greatly reduced | increased compared to the control group and the TGF-treated group | significantly increased |
